Experimental data reported in patent US20260159512A1, “BCAT2 INHIBITORS” (AGIOS PHARMACEUTICALS, INC., priority 2021, published 2026).

Key:
Conditions in all cases: average where tested multiple times
hBCAT1 = biological target: T1, hBCAT1 (Homo sapiens, UniProt P54687); test: BCAT1 in vitro enzyme inhibition assay (resazurin/diaphorase-coupled fluorescence); type: biochemical
T1 sequence (P54687 1-386): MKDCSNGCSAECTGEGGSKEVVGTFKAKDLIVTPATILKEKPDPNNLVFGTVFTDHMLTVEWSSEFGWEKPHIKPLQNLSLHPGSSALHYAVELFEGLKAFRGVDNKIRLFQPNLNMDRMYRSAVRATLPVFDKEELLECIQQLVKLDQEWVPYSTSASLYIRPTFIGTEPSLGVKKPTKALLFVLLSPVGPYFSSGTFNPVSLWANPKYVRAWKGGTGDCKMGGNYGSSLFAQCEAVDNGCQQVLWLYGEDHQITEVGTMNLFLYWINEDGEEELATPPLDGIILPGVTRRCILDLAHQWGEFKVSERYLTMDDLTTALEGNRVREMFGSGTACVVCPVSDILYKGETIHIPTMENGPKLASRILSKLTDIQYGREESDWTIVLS
Summary of the method: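 Human BCAT1 activity read by resazurin/diaphorase-coupled fluorescence. Compounds added from 50× DMSO stocks at 1:50, giving 10-point 3-fold titrations from 100 μM top final concentration. Run in technical duplicate; repeat tests averaged.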

BCAT2 [1] = biological target: T2, BCAT2 (Homo sapiens, UniProt O15382); test: BCAT2 in vitro enzyme inhibition assay (resazurin/diaphorase-coupled fluorescence); type: biochemical
T2 sequence (O15382 28-392): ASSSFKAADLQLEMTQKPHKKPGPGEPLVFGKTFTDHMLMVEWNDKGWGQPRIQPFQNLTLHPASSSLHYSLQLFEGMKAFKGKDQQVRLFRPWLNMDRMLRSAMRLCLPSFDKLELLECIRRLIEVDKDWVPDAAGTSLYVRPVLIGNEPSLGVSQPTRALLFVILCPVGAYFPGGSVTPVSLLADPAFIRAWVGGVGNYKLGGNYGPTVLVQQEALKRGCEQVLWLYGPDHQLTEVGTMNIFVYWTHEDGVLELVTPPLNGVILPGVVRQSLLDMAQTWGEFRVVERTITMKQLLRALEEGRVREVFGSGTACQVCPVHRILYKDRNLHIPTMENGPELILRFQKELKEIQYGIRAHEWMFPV
Summary of the method: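 Coupled fluorescence readout: glutamate formed from L-leucine/α-ketoglutarate transamination drives GDH/NAD/diaphorase reduction of resazurin (Ex 540/Em 590). Human BCAT2 was first exposed 1 h at room temperature to compound, top final 100 μM in 3-fold, 10-point series; substrate reaction ran 1 h before SDS quench, in technical duplicate with DMSO max and enzyme-free min controls.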

BCAT2 [2] = biological target: T2, BCAT2; test: BCAT2 in vitro cell inhibition using engineered A549 cells (KMV cell assay, 13C6-KMV by LC-MS/MS); type: cell-based; design: The result was an engineered A549 cell line that expressed endogenous BCAT2; endogenous in cells; host or cells: A549 cells with MUT and BCAT1 knocked out by CRISPR/CAS9

Structure (SMILES) | IC50 (hBCAT1) [µM] | IC50 (BCAT2 [1]) [µM] | IC50 (BCAT2 [2]) [µM]
Cc1cnn(-c2cc3c(cn2)nc(-c2ccccn2)n3[C@@H]2CCC[C@H](NC(=O)c3ccc(Br)s3)C2)n1 [Example 39, 5-bromo-N-((1S,3R)-3-(6-(4-methyl-2H-1,2,3-triazol-2-yl)-2-(pyridin-2-yl)-1H-imidazo[4,5-c]pyridin-1-yl)cyclohexyl)thiophene-2-carboxamide] | < 0.5 | ≤ 0.1 | ≤ 0.1
COc1cc2c(cn1)nc(-c1ccccc1F)n2[C@@H]1C[C@@H](O)C[C@H](NC(=O)c2ncc(Cl)s2)C1 [Example 278, 5-chloro-N-((1R,3S,5S)-3-(2-(2-fluorophenyl)-6-methoxy-1H-imidazo[4,5-c]pyridin-1-yl)-5-hydroxycyclohexyl)thiazole-2-carboxamide] | < 0.5 | ≤ 0.1 | 0.1 to 0.5
O=C(N[C@H]1C[C@H](O)C[C@@H](n2c(-c3ccccc3F)nc3cnc(-n4nccn4)cc32)C1)c1ncc(C(F)F)s1 (single isomer, unassigned) [Example 108] | < 0.5 | ≤ 0.1 | ≤ 0.1
O=C(N[C@H]1CCC[C@@H](n2c(-c3ncccc3F)nc3cnc(-n4nccn4)cc32)C1)c1ncc(C(F)(F)F)s1 [Example 65, N-((1S,3R)-3-(2-(3-fluoropyridin-2-yl)-6-(2H-1,2,3-triazol-2-yl)-1H-imidazo[4,5-c]pyridin-1-yl)cyclohexyl)-5-(trifluoromethyl)thiazole-2-carboxamide] | 0.5 to 1 | ≤ 0.1 | ≤ 0.1
CC(C)Cc1nc2cnc(-c3nccs3)cc2n1C1CCCC(NC(=O)c2ncc(Cl)s2)C1O (stereo not drawn) [Example 386, 5-chloro-N-(2-hydroxy-3-(2-isobutyl-6-(thiazol-2-yl)-1H-imidazo[4,5-c]pyridin-1-yl)cyclohexyl)thiazole-2-carboxamide] | < 0.5 | ≤ 0.1 | ≤ 0.1
C#Cc1cnc(C(=O)N[C@H]2CCC[C@@H](n3c(-c4ccccc4F)nc4cnc(-c5ncco5)cc43)C2)s1 [Example 8, 5-ethynyl-N-((1S,3R)-3-(2-(2-fluorophenyl)-6-(oxazol-2-yl)-1H-imidazo[4,5-c]pyridin-1-yl)cyclohexyl)thiazole-2-carboxamide] | < 0.5 | ≤ 0.1 | ≤ 0.1
O=C(NC1CC(O)CC(n2c(-c3ccccc3F)nc3cnc(-n4nccn4)cc32)C1)c1ncc(C(F)F)s1 (stereo not drawn) [Example 106, 5-(difluoromethyl)-N-(3-(2-(2-fluorophenyl)-6-(2H-1,2,3-triazol-2-yl)-1H-imidazo[4,5-c]pyridin-1-yl)-5-hydroxycyclohexyl)thiazole-2-carboxamide] | < 0.5 | ≤ 0.1 | ≤ 0.1
O=C(N[C@H]1CCCC[C@@H](n2c(-c3ccccc3F)nc3cnc(-c4nnc[nH]4)cc32)C1)c1ncc(Cl)s1 (single isomer, unassigned) [Example 88, 5-chloro-N-(3-(2-(2-fluorophenyl)-6-(4H-1,2,4-triazol-3-yl)-1H-imidazo[4,5-c]pyridin-1-yl)cycloheptyl)thiazole-2-carboxamide] | < 0.5 | ≤ 0.1 | ≤ 0.1
O=C(N[C@H]1CCC[C@@H](n2c(-c3ncccc3F)nc3cnc(-n4nccn4)cc32)C1)c1ncc(C(F)F)s1 [Example 24, 5-(difluoromethyl)-N-((1S,3R)-3-(2-(3-fluoropyridin-2-yl)-6-(2H-1,2,3-triazol-2-yl)-1H-imidazo[4,5-c]pyridin-1-yl)cyclohexyl)thiazole-2-carboxamide] | < 0.5 | ≤ 0.1 | ≤ 0.1
CC(C)Cc1nc2cnc(-c3cccc(F)n3)cc2n1[C@H]1C[C@H](O)C[C@@H](NC(=O)c2ncc(Cl)s2)C1 (stereo in doubt) [Example 385, 5-chloro-N-((1S,3R,5R)-3-(6-(6-fluoropyridin-2-yl)-2-isobutyl-1H-imidazo[4,5-c]pyridin-1-yl)-5-hydroxycyclohexyl)thiazole-2-carboxamide] | < 0.5 | ≤ 0.1 | 0.1 to 0.5
O=C(N[C@H]1CCC[C@@H](n2c(-c3ccccc3F)nc3cnc(-c4ncccc4F)cc32)C1)c1ncc(Cl)s1 [Example 169, 5-chloro-N-((1S,3R)-3-(2-(2-fluorophenyl)-6-(3-fluoropyridin-2-yl)-1H-imidazo[4,5-c]pyridin-1-yl)cyclohexyl)thiazole-2-carboxamide] | < 0.5 | ≤ 0.1 | ≤ 0.1
O=C(N[C@H]1CCC[C@@H](n2c(CC3CC3)nc3cnc(-c4nc[nH]n4)cc32)C1)c1ncc(Cl)s1 [Example 312, 5-chloro-N-((1S,3R)-3-(2-(cyclopropylmethyl)-6-(1H-1,2,4-triazol-3-yl)-1H-imidazo[4,5-c]pyridin-1-yl)cyclohexyl)thiazole-2-carboxamide] | < 0.5 | ≤ 0.1 | ≤ 0.1
CC(C)Cc1nc2cnc(-c3ccccn3)cc2n1[C@@H]1CCC[C@H](NC(=O)c2ncc(Cl)s2)C1 [Example 303, 5-chloro-N-((1S,3R)-3-(2-isobutyl-6-(pyridin-2-yl)-1H-imidazo[4,5-c]pyridin-1-yl)cyclohexyl)thiazole-2-carboxamide] | < 0.5 | ≤ 0.1 | 0.1 to 0.5
CC(=O)N1CC(NC(=O)c2ncc(C(F)F)s2)CC(n2c(-c3ccccc3F)nc3cnc(-n4ccnn4)cc32)C1 (stereo not drawn) [Example 124, N-(1-acetyl-5-(2-(2-fluorophenyl)-6-(1H-1,2,3-triazol-1-yl)-1H-imidazo[4,5-c]pyridin-1-yl)piperidin-3-yl)-5-(difluoromethyl)thiazole-2-carboxamide] | 1 to 5 | ≤ 0.1 | 0.1 to 0.5
CC(=O)N1CC(NC(=O)c2ncc(C(F)F)s2)CC(n2c(-c3ccccn3)nc3cnc(-n4nccn4)cc32)C1 (stereo not drawn) [Example 121, N-(1-acetyl-5-(2-(pyridin-2-yl)-6-(2H-1,2,3-triazol-2-yl)-1H-imidazo[4,5-c]pyridin-1-yl)piperidin-3-yl)-5-(difluoromethyl)thiazole-2-carboxamide] | 0.5 to 1 | ≤ 0.1 | 0.1 to 0.5
CC(C)Cc1nc2cnc(-c3ccn[nH]3)cc2n1[C@@H]1CCC[C@H](NC(=O)c2ncc(Cl)s2)[C@H]1O [Example 225, 5-chloro-N-((1S,2R,3R)-2-hydroxy-3-(2-isobutyl-6-(1H-pyrazol-5-yl)-1H-imidazo[4,5-c]pyridin-1-yl)cyclohexyl)thiazole-2-carboxamide] | < 0.5 | ≤ 0.1 | 0.1 to 0.5
CO[C@H]1C[C@H](NC(=O)c2ncc(Cl)s2)C[C@H](n2c(CC(C)C)nc3cnc(-n4cncn4)cc32)C1 [Example 417, 5-chloro-N-((1R,3S,5S)-3-(2-isobutyl-6-(1H-1,2,4-triazol-1-yl)-1H-imidazo[4,5-c]pyridin-1-yl)-5-methoxycyclohexyl)thiazole-2-carboxamide] | 1 to 5 | 0.1 to 0.5 | > 1
CC(C)C(=O)c1nc2cnc(-c3nc[nH]n3)cc2n1[C@@H]1CCC[C@H](NC(=O)c2ncc(Cl)s2)C1 [Example 187, 5-chloro-N-((1S,3R)-3-(2-isobutyryl-6-(1H-1,2,4-triazol-3-yl)-1H-imidazo[4,5-c]pyridin-1-yl)cyclohexyl)thiazole-2-carboxamide] | 1 to 5 | 0.1 to 0.5 | 0.1 to 0.5
